Assay results reported in US11980596B2 (priority 2017, dated 2024).

Tested on: subjects with MDD at imminent risk for suicide
[1] = esketamine 84 mg, double-blind phase, N = 35

Procedure: The study consisted of a screening evaluation performed within 24 hours (or up to 48 hours upon consultation with the Sponsor's medical monitor) prior to Day 1 dose, immediately followed by a 25-day double-blind treatment phase (Day 1 to 25) with twice a week dosing, and a 56-day follow up phase (Day 26 to Day 81). The study was designed as a POC study and therefore a two-sided 0.20 significance level was used.
Among 68 randomized subjects, 66 were included in the safety analysis set (defined as receiving at least one dose of study medication in the double-blind phase). […] All safety subjects (N=66) were included in the intent-to-treat (ITT) analysis set (defined as receiving at least one dose of study medication during the double-blind phase and having both the baseline and the Day 1, 4-hour postdose evaluation for the MADRS total score). Forty-nine subjects were included in the safety (FU) analysis set (defined as all subjects who have at least 1 visit during the follow up phase).

CN[C@]1(c2ccccc2Cl)CCCCC1=O [esketamine, (S)-2-(2-chlorophenyl)-2-(methylamino)cyclohexanone]
Discontinued from the double-blind phase due to (treatment-emergent) adverse events (84 mg): 5 subjects | Subjects with a serious adverse event (84 mg group, follow up phase): 1 subjects | TEAE: dissociation (84 mg, double-blind phase): 31.4% | TEAE: dizziness (84 mg, double-blind phase): 34.3% | TEAE: dysgeusia (84 mg, double-blind phase): 31.4% | TEAE: headache (84 mg, double-blind phase): 31.4% | TEAE: nausea (84 mg, double-blind phase): 37.1% | TEAE: vomiting (84 mg, double-blind phase): 20.0% | Withdrawn from double-blind phase: Adverse event (esketamine 84 mg, all randomized analysis set, N = 36): 5 (13.9%) subjects (%) | 1 or more serious TEAE [1]: 4 (11.4%) subjects (%) | Serious TEAE: Agitation [1]: 1 (2.9%) subjects (%) | Serious TEAE: Depressive symptom [1]: 1 (2.9%) subjects (%) | Serious TEAE: Psychiatric disorders [1]: 4 (11.4%) subjects (%) | Serious TEAE: Suicidal ideation [1]: 2 (5.7%) subjects (%) | TEAE [1]: 33 (94.3%) subjects (%) | TEAE Abdominal pain, no. subjects [1]: 0 | TEAE Acne, % of subjects [1]: (5.7%) | TEAE Acne, no. subjects [1]: 2 | TEAE Agitation, % of subjects [1]: (8.6%) | TEAE Agitation, no. subjects [1]: 3 | TEAE Anxiety, % of subjects [1]: (17.1%) | TEAE Anxiety, no. subjects [1]: 6 | TEAE Blepharospasm, no. subjects [1]: 0 | TEAE Blood pressure increased, % of subjects [1]: (5.7%) | TEAE Blood pressure increased, no. subjects [1]: 2 | TEAE Constipation, no. subjects [1]: 0 | TEAE Diarrhea, % of subjects [1]: (8.6%) | TEAE Diarrhea, no. subjects [1]: 3 | TEAE Diplopia, % of subjects [1]: (5.7%) | TEAE Diplopia, no. subjects [1]: 2 | TEAE Dissociation, % of subjects [1]: (31.4%) | TEAE Dissociation, no. subjects [1]: 11 | TEAE Dizziness postural, % of subjects [1]: (5.7%) | TEAE Dizziness postural, no. subjects [1]: 2 | TEAE Dizziness, % of subjects [1]: (34.3%) | TEAE Dizziness, no. subjects [1]: 12 | TEAE Dry mouth, % of subjects [1]: (8.6%) | TEAE Dry mouth, no. subjects [1]: 3 | TEAE Dysgeusia, % of subjects [1]: (31.4%) | TEAE Dysgeusia, no. subjects [1]: 11 | TEAE Ear and labyrinth disorders, % of subjects [1]: (25.7%) | TEAE Ear and labyrinth disorders, no. subjects [1]: 9 | TEAE Epistaxis, no. subjects [1]: 0 | TEAE Euphoric mood, % of subjects [1]: (11.4%) | TEAE Euphoric mood, no. subjects [1]: 4 | TEAE Eye disorders, % of subjects [1]: (20.0%) | TEAE Eye disorders, no. subjects [1]: 7 | TEAE Fatigue, % of subjects [1]: (5.7%) | TEAE Fatigue, no. subjects [1]: 2 | TEAE Feeling abnormal, % of subjects [1]: (8.6%) | TEAE Feeling abnormal, no. subjects [1]: 3 | TEAE Feeling cold, % of subjects [1]: (5.7%) | TEAE Feeling cold, no. subjects [1]: 2 | TEAE Flatulence, % of subjects [1]: (2.9%) | TEAE Flatulence, no. subjects [1]: 1 | TEAE Gastrointestinal disorders, % of subjects [1]: (54.3%) | TEAE Gastrointestinal disorders, no. subjects [1]: 19 | TEAE General disorders and administration site conditions, % of subjects [1]: (28.6%) | TEAE General disorders and administration site conditions, no. subjects [1]: 10 | TEAE Headache, % of subjects [1]: (31.4%) | TEAE Headache, no. subjects [1]: 11 | TEAE Hyperacusis, % of subjects [1]: (5.7%) | TEAE Hyperacusis, no. subjects [1]: 2 | TEAE Hyperhidrosis, % of subjects [1]: (5.7%) | TEAE Hyperhidrosis, no. subjects [1]: 2 | TEAE Hypoesthesia oral, % of subjects [1]: (5.7%) | TEAE Hypoesthesia oral, no. subjects [1]: 2 | TEAE Hypoesthesia, % of subjects [1]: (8.6%) | TEAE Hypoesthesia, no. subjects [1]: 3 | TEAE Infections and infestations, % of subjects [1]: (2.9%) | TEAE Infections and infestations, no. subjects [1]: 1 | TEAE Insomnia, % of subjects [1]: (8.6%) | TEAE Insomnia, no. subjects [1]: 3 | TEAE Intranasal paranesthesia, no. subjects [1]: 0 | TEAE Investigations, % of subjects [1]: (14.3%) | TEAE Investigations, no. subjects [1]: 5 | TEAE Nasal congestion, % of subjects [1]: (2.9%) | TEAE Nasal congestion, no. subjects [1]: 1 | TEAE Nasal discomfort, % of subjects [1]: (8.6%) | TEAE Nasal discomfort, no. subjects [1]: 3 | TEAE Nausea, % of subjects [1]: (37.1%) | TEAE Nausea, no. subjects [1]: 13 | TEAE Nervous system disorders, % of subjects [1]: (71.4%) | TEAE Nervous system disorders, no. subjects [1]: 25 | TEAE Oropharyngeal pain, % of subjects [1]: (5.7%) | TEAE Oropharyngeal pain, no. subjects [1]: 2 | TEAE Panic attack, no. subjects [1]: 0 | TEAE Paresthesia oral, % of subjects [1]: (5.7%) | TEAE Paresthesia oral, no. subjects [1]: 2 | TEAE Paresthesia, % of subjects [1]: (17.1%) | TEAE Paresthesia, no. subjects [1]: 6 | TEAE Pharyngeal hypoesthesia, % of subjects [1]: (5.7%) | TEAE Pharyngeal hypoesthesia, no. subjects [1]: 2 | TEAE Pollakiuria, no. subjects [1]: 0 | TEAE Psychiatric disorders, % of subjects [1]: (57.1%) | TEAE Psychiatric disorders, no. subjects [1]: 20 | TEAE Rash, % of subjects [1]: (2.9%) | TEAE Rash, no. subjects [1]: 1 | TEAE Renal and urinary disorders, % of subjects [1]: (2.9%) | TEAE Renal and urinary disorders, no. subjects [1]: 1 | TEAE Respiratory, thoracic and mediastinal disorders, % of subjects [1]: (25.7%) | TEAE Respiratory, thoracic and mediastinal disorders, no. subjects [1]: 9 | TEAE Rhinalgia, no. subjects [1]: 0 | TEAE Rhinorrhoea, no. subjects [1]: 0 | TEAE Sedation, % of subjects [1]: (17.1%) | TEAE Sedation, no. subjects [1]: 6 | TEAE Skin and subcutaneous tissue disorders, % of subjects [1]: (14.3%) | TEAE Skin and subcutaneous tissue disorders, no. subjects [1]: 5 | TEAE Somnolence, % of subjects [1]: (11.4%) | TEAE Somnolence, no. subjects [1]: 4 | TEAE Suicidal ideation, % of subjects [1]: (5.7%) | TEAE Suicidal ideation, no. subjects [1]: 2 | TEAE Throat irritation, % of subjects [1]: (8.6%) | TEAE Throat irritation, no. subjects [1]: 3 | TEAE Tinnitus, % of subjects [1]: (5.7%) | TEAE Tinnitus, no. subjects [1]: 2 | TEAE Toothache, no. subjects [1]: 0 | TEAE Upper respiratory tract infection, no. subjects [1]: 0 | TEAE Vertigo, % of subjects [1]: (11.4%) | TEAE Vertigo, no. subjects [1]: 4 | TEAE Vision blurred, % of subjects [1]: (8.6%) | TEAE Vision blurred, no. subjects [1]: 3 | TEAE Vomiting, % of subjects [1]: (20.0%) | TEAE Vomiting, no. subjects [1]: 7 | TEAE Weight increased, % of subjects [1]: (5.7%) | TEAE Weight increased, no. subjects [1]: 2 | TEAE leading to death [1]: 0 subjects (%) | TEAE leading to drug withdrawn [1]: 5 (14.3%) subjects (%) | TEAE leading to study discontinuation: Aggression [1]: 1 (2.9%) subjects (%) | TEAE leading to study discontinuation: Agitation [1]: 1 (2.9%) subjects (%) | TEAE leading to study discontinuation: Cardiac disorders [1]: 1 (2.9%) subjects (%) | TEAE leading to study discontinuation: Dissociative disorder [1]: 0 subjects (%) | TEAE leading to study discontinuation: Dizziness [1]: 1 (2.9%) subjects (%)
